Results on 6 molecules are retold here after ChEMBL document CHEMBL5291721, “A preclinical secondary pharmacology resource illuminates target-adverse drug reaction associations of marketed drugs” (Nat Commun, 2023).

A word on the AC50: it is the concentration at which the activity in the assay is half-maximal.

The target of one assay is T1, Adenosine receptor A3 (Homo sapiens, UniProt P0DMS8).
T1 sequence (P0DMS8 whole entry): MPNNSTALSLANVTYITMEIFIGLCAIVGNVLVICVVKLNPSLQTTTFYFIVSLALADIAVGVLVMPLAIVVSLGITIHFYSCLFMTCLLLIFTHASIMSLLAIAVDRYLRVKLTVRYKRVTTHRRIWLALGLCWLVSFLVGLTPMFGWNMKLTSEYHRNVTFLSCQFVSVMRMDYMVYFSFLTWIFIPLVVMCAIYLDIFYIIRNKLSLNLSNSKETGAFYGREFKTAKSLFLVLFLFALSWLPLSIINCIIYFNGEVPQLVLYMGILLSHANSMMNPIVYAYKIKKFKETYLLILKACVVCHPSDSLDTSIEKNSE

The target of assay [1] is T2, Cholecystokinin receptor type A (Homo sapiens, UniProt P32238).
T2 sequence (P32238 whole entry): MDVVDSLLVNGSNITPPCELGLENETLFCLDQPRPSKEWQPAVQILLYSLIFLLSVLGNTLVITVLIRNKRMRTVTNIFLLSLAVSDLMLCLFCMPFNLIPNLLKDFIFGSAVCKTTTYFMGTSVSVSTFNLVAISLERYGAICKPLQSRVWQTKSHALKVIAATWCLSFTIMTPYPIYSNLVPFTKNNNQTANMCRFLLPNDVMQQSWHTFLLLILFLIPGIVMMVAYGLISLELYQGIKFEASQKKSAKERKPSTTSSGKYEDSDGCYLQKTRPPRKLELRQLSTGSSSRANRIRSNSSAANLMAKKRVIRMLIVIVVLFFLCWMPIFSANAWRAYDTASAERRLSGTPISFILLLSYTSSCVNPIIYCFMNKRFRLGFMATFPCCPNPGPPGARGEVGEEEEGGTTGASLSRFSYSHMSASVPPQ

In assay [2] the target is Muscarinic acetylcholine receptor M3 (Homo sapiens, UniProt P20309).
The target of the next assay is T3, Estrogen receptor (Homo sapiens, UniProt P03372).
T3 sequence (P03372 whole entry): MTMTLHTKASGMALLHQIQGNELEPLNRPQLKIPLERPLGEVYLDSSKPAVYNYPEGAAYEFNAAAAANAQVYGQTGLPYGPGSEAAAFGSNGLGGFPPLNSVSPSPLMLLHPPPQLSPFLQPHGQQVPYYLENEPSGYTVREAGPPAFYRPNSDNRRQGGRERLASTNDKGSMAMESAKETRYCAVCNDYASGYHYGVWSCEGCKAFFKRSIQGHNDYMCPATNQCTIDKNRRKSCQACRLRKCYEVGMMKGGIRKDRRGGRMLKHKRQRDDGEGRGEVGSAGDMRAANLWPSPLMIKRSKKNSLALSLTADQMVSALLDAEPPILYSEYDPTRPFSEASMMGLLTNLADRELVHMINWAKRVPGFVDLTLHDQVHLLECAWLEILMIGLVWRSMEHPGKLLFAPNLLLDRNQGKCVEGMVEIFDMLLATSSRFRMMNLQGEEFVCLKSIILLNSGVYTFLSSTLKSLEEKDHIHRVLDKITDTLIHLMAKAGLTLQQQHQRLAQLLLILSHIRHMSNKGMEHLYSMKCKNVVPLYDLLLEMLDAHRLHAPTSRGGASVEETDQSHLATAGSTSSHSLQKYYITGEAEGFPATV

The next assay concerns the target Histamine H2 receptor (Homo sapiens, UniProt P25021). The format is functional, cell-based.
In assay [3] the target is Delta-type opioid receptor (Homo sapiens, UniProt P41143).
In assay [4] the target is Kappa-type opioid receptor (Homo sapiens, UniProt P41145).
A further assay has as its target T4, Progesterone receptor (Homo sapiens, UniProt P06401).
T4 sequence (P06401 whole entry): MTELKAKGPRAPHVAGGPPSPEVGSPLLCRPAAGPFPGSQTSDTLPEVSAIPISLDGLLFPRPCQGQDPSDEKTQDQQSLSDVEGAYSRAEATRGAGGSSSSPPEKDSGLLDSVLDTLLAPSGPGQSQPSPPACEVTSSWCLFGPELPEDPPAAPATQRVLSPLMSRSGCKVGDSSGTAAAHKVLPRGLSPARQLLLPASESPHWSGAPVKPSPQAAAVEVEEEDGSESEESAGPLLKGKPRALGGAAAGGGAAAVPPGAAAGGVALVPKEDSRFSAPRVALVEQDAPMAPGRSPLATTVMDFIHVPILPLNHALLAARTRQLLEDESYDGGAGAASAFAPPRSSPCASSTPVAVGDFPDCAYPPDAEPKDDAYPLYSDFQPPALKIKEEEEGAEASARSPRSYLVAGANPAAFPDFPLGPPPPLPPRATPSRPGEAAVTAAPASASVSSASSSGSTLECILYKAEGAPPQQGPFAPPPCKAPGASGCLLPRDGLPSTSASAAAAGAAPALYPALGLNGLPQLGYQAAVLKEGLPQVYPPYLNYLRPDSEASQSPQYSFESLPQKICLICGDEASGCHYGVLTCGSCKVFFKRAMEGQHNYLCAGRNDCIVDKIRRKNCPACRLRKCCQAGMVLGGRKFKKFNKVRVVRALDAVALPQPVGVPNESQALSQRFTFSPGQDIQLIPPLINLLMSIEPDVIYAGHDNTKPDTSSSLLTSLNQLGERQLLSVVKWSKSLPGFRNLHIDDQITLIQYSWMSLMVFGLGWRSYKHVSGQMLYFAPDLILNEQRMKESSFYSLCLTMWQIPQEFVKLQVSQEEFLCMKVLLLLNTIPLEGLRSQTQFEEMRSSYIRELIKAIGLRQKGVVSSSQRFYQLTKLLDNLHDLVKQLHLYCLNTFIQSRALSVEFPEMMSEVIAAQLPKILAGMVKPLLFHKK
Format: functional.

Assay [5] has as its target Sodium-dependent serotonin transporter (Homo sapiens, UniProt P31645).
For the next assay, the target named is Histamine H3 receptor (Homo sapiens, UniProt Q9Y5N1).

Where a SMILES comes first, the peptide text is derived from it.
Further: assay procedure not described here.

Chain of Sodium-dependent serotonin transporter (P31645 whole entry): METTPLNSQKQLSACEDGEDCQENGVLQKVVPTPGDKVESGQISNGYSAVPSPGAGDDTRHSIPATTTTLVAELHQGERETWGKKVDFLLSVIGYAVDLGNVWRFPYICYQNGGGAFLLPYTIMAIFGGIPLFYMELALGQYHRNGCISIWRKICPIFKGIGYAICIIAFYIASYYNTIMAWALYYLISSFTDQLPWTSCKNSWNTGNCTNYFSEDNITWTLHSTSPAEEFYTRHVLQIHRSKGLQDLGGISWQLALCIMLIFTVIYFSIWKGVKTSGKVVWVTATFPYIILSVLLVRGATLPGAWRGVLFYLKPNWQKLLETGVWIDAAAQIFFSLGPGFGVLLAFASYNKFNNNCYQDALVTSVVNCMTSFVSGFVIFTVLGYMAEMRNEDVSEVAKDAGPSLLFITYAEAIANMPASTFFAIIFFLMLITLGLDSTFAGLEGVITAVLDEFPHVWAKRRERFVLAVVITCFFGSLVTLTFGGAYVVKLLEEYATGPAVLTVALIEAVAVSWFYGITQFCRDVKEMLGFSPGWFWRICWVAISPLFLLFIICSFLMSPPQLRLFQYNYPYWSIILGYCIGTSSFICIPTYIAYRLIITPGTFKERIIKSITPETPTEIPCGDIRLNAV
Chain of Kappa-type opioid receptor (P41145 whole entry): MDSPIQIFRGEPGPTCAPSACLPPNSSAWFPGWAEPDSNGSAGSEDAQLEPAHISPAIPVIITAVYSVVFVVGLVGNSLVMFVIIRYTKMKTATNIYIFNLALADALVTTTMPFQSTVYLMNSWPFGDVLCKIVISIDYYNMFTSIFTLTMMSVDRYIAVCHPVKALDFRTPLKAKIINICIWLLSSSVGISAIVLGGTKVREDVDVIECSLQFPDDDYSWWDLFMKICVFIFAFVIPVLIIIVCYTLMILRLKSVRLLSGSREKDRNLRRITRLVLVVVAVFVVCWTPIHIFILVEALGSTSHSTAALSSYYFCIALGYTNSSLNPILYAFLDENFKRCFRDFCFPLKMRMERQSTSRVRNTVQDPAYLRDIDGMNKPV
Chain of Histamine H3 receptor (Q9Y5N1 whole entry): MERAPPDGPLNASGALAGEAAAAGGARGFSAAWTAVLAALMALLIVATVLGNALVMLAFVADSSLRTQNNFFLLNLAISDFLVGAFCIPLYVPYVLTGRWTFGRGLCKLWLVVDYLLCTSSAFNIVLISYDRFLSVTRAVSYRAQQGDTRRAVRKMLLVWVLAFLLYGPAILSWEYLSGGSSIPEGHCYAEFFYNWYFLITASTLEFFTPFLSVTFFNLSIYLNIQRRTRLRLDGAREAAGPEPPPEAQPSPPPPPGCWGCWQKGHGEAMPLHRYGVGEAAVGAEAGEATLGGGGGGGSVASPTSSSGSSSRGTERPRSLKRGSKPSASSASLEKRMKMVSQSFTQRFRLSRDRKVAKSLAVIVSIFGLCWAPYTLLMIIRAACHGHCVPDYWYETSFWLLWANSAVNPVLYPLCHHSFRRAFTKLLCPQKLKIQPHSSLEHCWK
Chain of Histamine H2 receptor (P25021 whole entry): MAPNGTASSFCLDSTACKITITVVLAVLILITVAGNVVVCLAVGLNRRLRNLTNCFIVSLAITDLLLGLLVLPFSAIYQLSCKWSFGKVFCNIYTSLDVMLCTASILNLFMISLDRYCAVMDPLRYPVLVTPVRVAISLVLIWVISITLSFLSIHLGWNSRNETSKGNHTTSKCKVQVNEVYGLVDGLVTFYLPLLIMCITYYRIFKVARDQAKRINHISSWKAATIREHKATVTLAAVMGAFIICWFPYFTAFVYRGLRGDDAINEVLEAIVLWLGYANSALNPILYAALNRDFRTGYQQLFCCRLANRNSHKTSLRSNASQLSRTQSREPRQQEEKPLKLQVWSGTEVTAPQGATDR
Chain of Delta-type opioid receptor (P41143 whole entry): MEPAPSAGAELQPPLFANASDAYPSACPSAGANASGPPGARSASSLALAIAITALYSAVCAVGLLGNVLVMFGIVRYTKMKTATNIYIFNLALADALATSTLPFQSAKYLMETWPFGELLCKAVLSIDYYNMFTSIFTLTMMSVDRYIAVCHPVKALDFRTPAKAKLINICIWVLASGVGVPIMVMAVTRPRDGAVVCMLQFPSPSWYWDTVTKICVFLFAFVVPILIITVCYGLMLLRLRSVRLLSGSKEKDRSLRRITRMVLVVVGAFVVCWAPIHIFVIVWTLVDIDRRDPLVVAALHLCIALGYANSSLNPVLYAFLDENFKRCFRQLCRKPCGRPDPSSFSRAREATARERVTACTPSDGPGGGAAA
Chain of Muscarinic acetylcholine receptor M3 (P20309 whole entry): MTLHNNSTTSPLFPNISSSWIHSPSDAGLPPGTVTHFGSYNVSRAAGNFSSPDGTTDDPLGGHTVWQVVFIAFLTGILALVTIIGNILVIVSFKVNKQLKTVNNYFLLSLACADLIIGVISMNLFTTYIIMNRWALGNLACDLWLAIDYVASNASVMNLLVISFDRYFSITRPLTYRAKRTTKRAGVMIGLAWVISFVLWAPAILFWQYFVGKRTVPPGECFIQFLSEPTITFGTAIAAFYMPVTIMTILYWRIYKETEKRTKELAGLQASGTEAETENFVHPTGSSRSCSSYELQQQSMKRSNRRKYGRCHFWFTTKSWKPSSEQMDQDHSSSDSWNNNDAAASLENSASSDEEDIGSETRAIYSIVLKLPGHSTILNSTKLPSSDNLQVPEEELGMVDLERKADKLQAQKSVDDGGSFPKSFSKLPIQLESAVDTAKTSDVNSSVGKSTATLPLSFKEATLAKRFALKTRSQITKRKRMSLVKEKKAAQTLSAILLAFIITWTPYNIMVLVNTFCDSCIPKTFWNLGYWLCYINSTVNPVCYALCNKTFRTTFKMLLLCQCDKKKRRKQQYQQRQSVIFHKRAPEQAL

With `O=C(O)c1nn(Cc2ccc(Cl)cc2Cl)c2ccccc12` [LONIDAMINE], the AC50 (on Adenosine receptor A3; in assay [1]; in [2]; at Estrogen receptor; at Histamine H2 receptor; in [3]) was greater than 30 µM throughout. The AC50 (in assay [4]; on Progesterone receptor; in assay [5]; on Histamine H3 receptor) was greater than 30 µM throughout.

For `Cc1ccc(S(=O)(=O)NC(=O)N[C@H]2[C@H]3CC[C@@](C)([C@H]2O)C3(C)C)cc1` [GLIBORNURIDE], the AC50 (at Adenosine receptor A3; in [1]; in [2]; at Estrogen receptor; on Histamine H2 receptor; in assay [3]) was greater than 30 µM throughout. In addition, the AC50 (in assay [4]; at Progesterone receptor; in [5]; at Histamine H3 receptor) was greater than 30 µM throughout.

Take `CCCCOC(=O)C(=O)Nc1cccc(-c2nnn[nH]2)c1` [TAZANOLAST]: the concentration at half-maximal activity (AC50) (at Adenosine receptor A3; in assay [1]; in assay [2]; on Estrogen receptor; at Histamine H2 receptor; in assay [3]) was greater than 30 µM in each case. Also, the AC50 (in [4]; on Progesterone receptor; in assay [5]; at Histamine H3 receptor) was greater than 30 µM in each case.

Consider `C=C(c1ccccc1OCc1cccc(Cl)c1)n1ccnc1` [CROCONAZOLE], for which the half-maximal activity concentration (AC50) is 11.5 µM on Adenosine receptor A3; greater than 30 µM in [1]; greater than 30 µM in assay [2]; greater than 30 µM at Estrogen receptor; greater than 10 µM on Histamine H2 receptor; greater than 30 µM in assay [3]. For the same molecule, the AC50 in assay [4] was 1.03 µM; at Progesterone receptor, greater than 30 µM; in [5] it was 16.8 µM; on Histamine H3 receptor it was greater than 10 µM.

With `OCC(O)COc1ccc(Cl)cc1` (stereo not given), the AC50 on Adenosine receptor A3 is greater than 10 µM; in [1], greater than 10 µM; in [2] it was greater than 30 µM; at Estrogen receptor, greater than 10 µM; at Histamine H2 receptor, greater than 10 µM; in assay [3] it was greater than 30 µM. For the same molecule, the half-maximal activity concentration (AC50) (in assay [4]; at Progesterone receptor; in assay [5]; at Histamine H3 receptor) was greater than 10 µM each time.

Turning to `C[C@H](N)C(=O)N[C@@H](CCC(N)=O)C(=O)O` [ALANYL GLUTAMINE] (H-Ala-Gln-OH), the half-maximal activity concentration (AC50) (on Adenosine receptor A3; in assay [1]; in assay [2]; at Estrogen receptor; at Histamine H2 receptor; in [3]) was greater than 30 µM each time. The AC50 (in [4]; on Progesterone receptor; in assay [5]; on Histamine H3 receptor) was greater than 30 µM in each case.
